# Source: PubChem BioAssay (NCI)
#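 Following 48 hours of exposure in 96-well plates, responses at five concentrations were used to interpolate endpoints linearly. At the TGI there is no net growth.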
# Key:
# Experiment in all cases: growth of human tumour cells (NCI), 48 h
# [1] = system: HCC-2998 colon
# [2] = system: ACHN renal
# [3] = system: SF-268 CNS
# [4] = system: MDA-MB-231 breast
# [5] = system: HOP-62 NSCLC
# [6] = system: 786-0 renal
# [7] = system: NCI-H23 lung
# [8] = system: RPMI-8226 leukemia
# [9] = system: DU-145 prostate
# [10] = system: SNB-75 CNS
# [11] = system: K-562 leukemia
# [12] = system: SR leukemia
# [13] = system: MALME-3M melanoma
# [14] = system: HT29 colon
# [15] = system: PC-3 prostate
# [16] = system: EKVX NSCLC
# [17] = system: BT-549 breast
# [18] = system: HCT-116 colon
# [19] = system: COLO 205 colon
# [20] = system: NCI/ADR-RES ovarian
# [21] = system: IGROV1 ovarian
# [22] = system: A549 NSCLC
# [23] = system: TK-10 renal
# [24] = system: SN12C renal
# [25] = system: OVCAR-8 ovarian
# [26] = system: SK-MEL-2 melanoma
# [27] = system: SK-OV-3 ovarian
# [28] = system: SF-539 CNS
# [29] = system: NCI-H460 lung
# [30] = system: MOLT-4 leukemia
# [31] = system: A498 renal
# [32] = system: SK-MEL-28 melanoma
# [33] = system: SW-620 colon
# [34] = system: SNB-19 CNS
# [35] = system: UACC-62 melanoma
# [36] = system: NCI-H226 lung
# [37] = system: T-47D breast
# [38] = system: MCF7 breast
# [39] = system: OVCAR-3 ovarian
# [40] = system: OVCAR-4 ovarian
# [41] = system: SK-MEL-5 melanoma
# [42] = system: OVCAR-5 ovarian
# [43] = system: LOX IMVI melanoma
# [44] = system: MDA-MB-435
# [45] = system: KM12 colon
# [46] = system: SF-295 CNS
# [47] = system: UO-31 renal
# [48] = system: MDA-N
# [49] = system: U251 CNS
# [50] = system: M14 melanoma
# [51] = system: HS 578T breast
# [52] = system: HCT-15 colon
# [53] = system: UACC-257 melanoma
# [54] = system: CAKI-1 renal
# [55] = system: CCRF-CEM leukemia
# [56] = system: HOP-92 NSCLC
# [57] = system: RXF 393 renal
# [58] = system: NCI-H522 lung
compound,measurement,setting,value
CN(C)CCNC(=O)c1cccc2c(NC(CCCN=C(N)N)C(=O)O)c3ccccc3[n+](C)c12 (stereo not drawn),TGI,[1],> 100 µM
same,TGI,[2],> 100 µM
same,TGI,[3],92.6 µM
same,TGI,[4],> 100 µM
same,TGI,[5],> 100 µM
same,TGI,[6],> 100 µM
same,TGI,[7],> 100 µM
same,TGI,[8],> 100 µM
same,TGI,[9],> 100 µM
same,TGI,[10],> 100 µM
same,TGI,[11],> 100 µM
same,TGI,[12],> 100 µM
same,TGI,[13],> 100 µM
same,TGI,[14],> 100 µM
same,TGI,[15],> 100 µM
same,TGI,[16],> 100 µM
same,TGI,[17],> 100 µM
same,TGI,[18],> 100 µM
same,TGI,[19],> 100 µM
same,TGI,[20],80.9 µM
same,TGI,[21],> 100 µM
same,TGI,[22],> 100 µM
same,TGI,[23],> 100 µM
same,TGI,[24],> 100 µM
same,TGI,[25],> 100 µM
same,TGI,[26],> 100 µM
same,TGI,[27],> 100 µM
same,TGI,[28],> 100 µM
same,TGI,[29],> 100 µM
same,TGI,[30],> 100 µM
same,TGI,[31],> 100 µM
same,TGI,[32],> 100 µM
same,TGI,[33],> 100 µM
same,TGI,[34],> 100 µM
same,TGI,[35],> 100 µM
same,TGI,[36],94.5 µM
same,TGI,[37],> 100 µM
same,TGI,[38],> 100 µM
same,TGI,[39],> 100 µM
same,TGI,[40],> 100 µM
same,TGI,[41],> 100 µM
same,TGI,[42],> 100 µM
same,TGI,[43],> 100 µM
same,TGI,[44],> 100 µM
same,TGI,[45],> 100 µM
same,TGI,[46],> 100 µM
same,TGI,[47],> 100 µM
same,TGI,[48],> 100 µM
same,TGI,[49],> 100 µM
same,TGI,[50],> 100 µM
same,TGI,[51],> 100 µM
same,TGI,[52],> 100 µM
same,TGI,[53],> 100 µM
S=C(NCCc1ccccn1)c1nc[nH]c1C(=S)NCCc1ccccn1,TGI,[1],> 100 µM
same,TGI,[54],> 100 µM
same,TGI,[2],> 100 µM
same,TGI,[3],> 100 µM
same,TGI,[4],> 100 µM
same,TGI,[5],> 100 µM
same,TGI,[6],> 100 µM
same,TGI,[7],> 100 µM
same,TGI,[8],> 100 µM
same,TGI,[9],> 100 µM
same,TGI,[10],83.3 µM
same,TGI,[11],> 100 µM
same,TGI,[12],> 100 µM
same,TGI,[13],> 100 µM
same,TGI,[14],> 100 µM
same,TGI,[15],> 100 µM
same,TGI,[16],> 100 µM
same,TGI,[17],> 100 µM
same,TGI,[18],> 100 µM
same,TGI,[55],81.1 µM
same,TGI,[19],> 100 µM
same,TGI,[20],65.1 µM
same,TGI,[21],> 100 µM
same,TGI,[22],> 100 µM
same,TGI,[23],> 100 µM
same,TGI,[24],> 100 µM
same,TGI,[25],82.4 µM
same,TGI,[26],> 100 µM
same,TGI,[27],> 100 µM
same,TGI,[29],64.6 µM
same,TGI,[31],> 100 µM
same,TGI,[32],> 100 µM
same,TGI,[33],> 100 µM
same,TGI,[34],> 100 µM
same,TGI,[35],56.2 µM
same,TGI,[36],> 100 µM
same,TGI,[37],60.6 µM
same,TGI,[38],> 100 µM
same,TGI,[39],> 100 µM
same,TGI,[40],> 100 µM
same,TGI,[41],> 100 µM
same,TGI,[42],> 100 µM
same,TGI,[56],> 100 µM
same,TGI,[43],45.5 µM
same,TGI,[44],> 100 µM
same,TGI,[45],> 100 µM
same,TGI,[46],> 100 µM
same,TGI,[47],> 100 µM
same,TGI,[57],87.9 µM
same,TGI,[48],> 100 µM
same,TGI,[49],> 100 µM
same,TGI,[50],> 100 µM
same,TGI,[51],68.1 µM
same,TGI,[52],> 100 µM
same,TGI,[53],> 100 µM
CCc1nc(N)c2nc(-c3ccc(C#N)cc3)oc2n1,TGI,[1],> 100 µM
same,TGI,[54],> 100 µM
same,TGI,[2],> 100 µM
same,TGI,[3],> 100 µM
same,TGI,[4],> 100 µM
same,TGI,[5],> 100 µM
same,TGI,[6],> 100 µM
same,TGI,[7],> 100 µM
same,TGI,[8],> 100 µM
same,TGI,[9],> 100 µM
same,TGI,[10],> 100 µM
same,TGI,[11],> 100 µM
same,TGI,[12],> 100 µM
same,TGI,[14],> 100 µM
same,TGI,[15],> 100 µM
same,TGI,[16],> 100 µM
same,TGI,[17],> 100 µM
same,TGI,[18],> 100 µM
same,TGI,[55],> 100 µM
same,TGI,[19],> 100 µM
same,TGI,[20],> 100 µM
same,TGI,[21],> 100 µM
same,TGI,[22],> 100 µM
same,TGI,[23],> 100 µM
same,TGI,[24],> 100 µM
same,TGI,[25],> 100 µM
same,TGI,[26],> 100 µM
same,TGI,[28],> 100 µM
same,TGI,[29],> 100 µM
same,TGI,[30],> 100 µM
same,TGI,[31],> 100 µM
same,TGI,[32],> 100 µM
same,TGI,[33],> 100 µM
same,TGI,[34],> 100 µM
same,TGI,[35],> 100 µM
same,TGI,[36],> 100 µM
same,TGI,[37],> 100 µM
same,TGI,[38],> 100 µM
same,TGI,[39],> 100 µM
same,TGI,[58],> 100 µM
same,TGI,[41],> 100 µM
same,TGI,[42],> 100 µM
same,TGI,[56],> 100 µM
same,TGI,[43],> 100 µM
same,TGI,[44],> 100 µM
same,TGI,[45],> 100 µM
same,TGI,[46],> 100 µM
same,TGI,[47],> 100 µM
same,TGI,[57],> 100 µM
same,TGI,[48],> 100 µM
same,TGI,[50],> 100 µM
same,TGI,[51],> 100 µM
same,TGI,[52],> 100 µM
same,TGI,[53],> 100 µM
O=C1/C(=C\c2cccc(Oc3ccccc3)c2)S(=O)(=O)C(c2ccccc2)N1c1cc(Cl)ccc1Cl (stereo not drawn),TGI,[1],56.6 µM
same,TGI,[54],> 100 µM
same,TGI,[2],44.6 µM
same,TGI,[3],42.3 µM
same,TGI,[4],> 100 µM
same,TGI,[5],43.3 µM
same,TGI,[6],37.4 µM
same,TGI,[7],44.3 µM
same,TGI,[8],> 100 µM
same,TGI,[9],76.7 µM
same,TGI,[10],69.6 µM
same,TGI,[11],> 100 µM
same,TGI,[12],> 100 µM
same,TGI,[13],42.4 µM
same,TGI,[14],> 100 µM
same,TGI,[15],> 100 µM
same,TGI,[16],> 100 µM
same,TGI,[17],35.6 µM
same,TGI,[18],21.2 µM
same,TGI,[55],40.7 µM
same,TGI,[19],48.4 µM
same,TGI,[20],94.4 µM
same,TGI,[21],56.2 µM
same,TGI,[22],> 100 µM
same,TGI,[23],57.3 µM
same,TGI,[24],35 µM
same,TGI,[25],32.7 µM
same,TGI,[26],76.9 µM
same,TGI,[27],88.3 µM
same,TGI,[28],> 100 µM
same,TGI,[29],> 100 µM
same,TGI,[30],> 100 µM
same,TGI,[31],> 100 µM
same,TGI,[32],36.7 µM
same,TGI,[33],10.8 µM
same,TGI,[34],35.7 µM
same,TGI,[35],36.7 µM
same,TGI,[37],82.4 µM
same,TGI,[38],45.1 µM
same,TGI,[39],41.9 µM
same,TGI,[58],40 µM
same,TGI,[40],> 100 µM
same,TGI,[41],33.3 µM
same,TGI,[42],58.6 µM
same,TGI,[56],40.4 µM
same,TGI,[43],23.8 µM
same,TGI,[44],36.5 µM
same,TGI,[45],76.9 µM
same,TGI,[46],33.1 µM
same,TGI,[47],39.6 µM
same,TGI,[57],33.8 µM
same,TGI,[48],28.8 µM
same,TGI,[49],> 100 µM
same,TGI,[50],44.1 µM
same,TGI,[51],88.1 µM
same,TGI,[52],74.6 µM
same,TGI,[53],47.9 µM
COC(=O)CCC1(C)C2CCC1/C(=N/O)C2 (stereo not drawn),TGI,[1],> 100 µM
same,TGI,[54],> 100 µM
same,TGI,[2],> 100 µM
same,TGI,[3],> 100 µM
same,TGI,[4],> 100 µM
same,TGI,[5],> 100 µM
same,TGI,[6],> 100 µM
same,TGI,[7],> 100 µM
same,TGI,[8],> 100 µM
same,TGI,[9],> 100 µM
same,TGI,[10],> 100 µM
same,TGI,[11],> 100 µM
same,TGI,[12],> 100 µM
same,TGI,[13],> 100 µM
same,TGI,[14],> 100 µM
same,TGI,[15],> 100 µM
same,TGI,[16],> 100 µM
same,TGI,[17],> 100 µM
same,TGI,[18],> 100 µM
same,TGI,[55],> 100 µM
same,TGI,[19],> 100 µM
same,TGI,[20],> 100 µM
same,TGI,[21],> 100 µM
same,TGI,[22],> 100 µM
same,TGI,[23],> 100 µM
same,TGI,[24],> 100 µM
same,TGI,[25],> 100 µM
same,TGI,[26],> 100 µM
same,TGI,[27],> 100 µM
same,TGI,[30],> 100 µM
same,TGI,[31],> 100 µM
same,TGI,[32],> 100 µM
same,TGI,[33],> 100 µM
same,TGI,[34],> 100 µM
same,TGI,[35],> 100 µM
same,TGI,[36],> 100 µM
same,TGI,[37],> 100 µM
same,TGI,[38],> 100 µM
same,TGI,[39],> 100 µM
same,TGI,[58],> 100 µM
same,TGI,[40],> 100 µM
same,TGI,[41],> 100 µM
same,TGI,[42],> 100 µM
same,TGI,[44],> 100 µM
same,TGI,[45],> 100 µM
same,TGI,[46],> 100 µM
same,TGI,[47],> 100 µM
same,TGI,[57],> 100 µM
same,TGI,[48],> 100 µM
same,TGI,[49],> 100 µM
same,TGI,[50],> 100 µM
same,TGI,[51],> 100 µM
same,TGI,[52],> 100 µM
same,TGI,[53],> 100 µM
